{
  "source": "patent US7943139B2",
  "about": "“Methods of generating a humoral immune response against human immunodeficiency virus (HIV) comprising administering Nef apoptotic motif-containing polypeptide-conjugates” (priority 2004, dated 2011)",
  "key": {"thymus": {"system": "thymus", "assay": "Mouse thymus apoptosis after ip peptide for one month", "format": "in vivo, mice", "conditions": "ip injection for one month", "procedure": "Nef motif 1 was administered to mice for one month by ip injection with either Nef motif 1 (Seq. ID No. 19), the 11 mer sequence or the scrambled apoptotic sequence Seq. ID No. 18. […] This provides further indication of the ability of the Nef protein to inhibit immune response related to CD4+ peripheral blood lymphocytes."}, "Jurkat cell cultures": {"system": "Jurkat cell cultures", "assay": "Nef peptide apoptosis screen (TUNEL)", "format": "cell-based", "conditions": "24 hours; for apoptosis induced by Nef 20 mer peptides: 10 ng/ml", "procedure": "Apoptosis generates DNA free ends which can be labeled in situ using terminal deoxynucleotidyl-transferase (TdT), incorporating an exogenously added labeled nucleotide to the DNA strand. This label can then be visualized directly by fluorescence or indirectly using anti-FITC-peroxidase, and a calorimetric assay. Cells on coverslips were washed with PBS, and fixed for 30 minutes at RT with 4% paraformaldehyde, in PBS, pH 7.4. They were then washed with PBS, and permeabilized with 0.1% Triton X-100 for 10 minutes at room temperature (RT). The slides were rinsed twice with PBS, and air dried for 2 minutes. Then, we followed precisely the manufacturers procedure for TUNEL staining the slides (manufacturer's procedure for the In Situ Cell Death Detection Kit, AP; Boehringer Mannheim, Indianapolis, Ind.). Total cell counts were determined by counterstaining fixed cultures with 20 μg/ml of Hoechst 33258. All specimens were observed by epifluorescence on a computer-controlled microscope system based on a Zeiss Axioskop microscope (Carl Zeiss, Thornwood, N.Y.), and the images were obtained and examined using a charged coupled device (CCD) camera, MagnaFire, model S99806 (Olympus American, Melville, N.Y.). Images were examined using Image-Pro Plus 4.1 for Windows (Media Cybernetics, Silver Springs, Md.) software.\nNef peptides retain much of the binding and signaling activity of the full molecule. A set of 20 mer peptides with 10 aa overlaps, spanning the Nef protein (205 aa), were obtained from the AIDS Reagent Program. Jurkat cell cultures were exposed to each of the Nef peptides at 10 ng/ml for 24 hours, and screened for apoptosis. One peak of apoptosis was observed spanning peptide aa31-50 to […], peaking at aa41-60 and aa51-70. […] Two regions of the Nef protein that induce apoptosis were identified; (1) a major apoptotic peak centering on aa50-60 (motif 1); (2) a minor peak centering on aa170-180 (motif 2). (aa sequence from HIV-1B clade NL403, Ass. No. AF070521) To determine the specificity of the apoptotic motifs, two 11 mer peptides spanning motif 1, were made, one with the correctly ordered sequence (Nef Motif 1-[…]) (Seq. ID No. 17), and the other with the correct amino acids scrambled in random order (Nef scMotif 1-[…]) (Seq. ID No. 18). Jurkat cell cultures were exposed to each of the two peptides at 8 ng/ml for 24 hours, and screened for apoptosis by TUNEL assay. Nef Motif 1 peptide induced 82% of the apoptosis observed using the full Nef protein. […] Thus, (a) Nef aa50-60 is sufficient to bind and induce an apoptotic signal; (b) induction of apoptosis is primary sequence specific. In some of the studies disclosed herein the Nef Motif 1 having an extra acid, namely […] (Seq. ID No. 19) was administered. In this report, Seq. ID No. 17 and Seq. ID No. 19 are both referred to as M-1 or Nef Motif-1 peptide."}, "CXCR4 receptor": {"target": "T1, CXCR4 receptor (Homo sapiens, UniProt P61073)", "T1 construct": "transiently transfected with a CXCR4 cDNA clone; expressed in transfected cells; host or cells: MDA-MB-468 (human breast tumour line, lacks endogenous CXCR4), transient transfection", "T1 sequence (P61073 whole entry)": "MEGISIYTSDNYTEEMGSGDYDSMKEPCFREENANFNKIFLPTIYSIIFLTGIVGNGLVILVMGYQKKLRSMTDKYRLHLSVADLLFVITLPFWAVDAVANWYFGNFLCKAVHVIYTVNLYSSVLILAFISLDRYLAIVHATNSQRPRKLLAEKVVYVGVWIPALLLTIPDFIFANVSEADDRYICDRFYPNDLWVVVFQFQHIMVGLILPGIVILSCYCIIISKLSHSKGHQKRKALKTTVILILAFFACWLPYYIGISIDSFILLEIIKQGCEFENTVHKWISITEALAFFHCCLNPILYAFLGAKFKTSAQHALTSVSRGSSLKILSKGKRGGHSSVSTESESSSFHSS", "assay": "Fluorescent binding assay with Flc labeled M1 peptide on transfected MDA-MB-468 cells", "procedure": "Specific physical binding to CXCR4 was assayed. The above transfection experiment (MDA-MB-468 cultures either untransfected, or transiently transfected with a CXCR4 cDNA clone, empty vector, or CCR5 cDNA clone) was assayed in the fluorescent binding assay with the Flc labeled M1 peptide."}, "peripheral lymphocytes": {"system": "peripheral lymphocytes", "assay": "KLH-M1 pre-immunization and Nef peptide challenge: PBL depletion and humoral response", "format": "in vivo, mice", "procedure": "Nef Motif 1 peptides linked to keyhole limpet […] (KLH) were administered to 9 mice. Subsequently, the pre-immunized mice and the naive mice were either unchallenged or challenged with Nef peptide for a month. The mice were sacrificed and the PBLs collected."}},
  "note": "Where no end group is shown, it is not given here.",
  "data": [
    {"substance": "ALAETCQNAWA [Nef scMotif 1, Motif 1 amino acids scrambled in random order, reference compound]", "values": [
      {"measurement": "apoptosis in the thymus", "setting": "thymus", "result": "No apoptosis"},
      {"measurement": "apoptosis (TUNEL)", "setting": "Jurkat cell cultures; 8 ng/ml, compared with untreated control", "result": "only background levels of apoptosis"}
    ]},
    {"substance": "Flc-M1 peptide: Flc labeled M1 peptide used in the fluorescent binding assay (NAACAWLEAQ; also: Flc label, place not given here)", "values": [
      {"measurement": "binding of the Flc-M1 peptide", "setting": "CXCR4 receptor; MDA-MB-468 cells transiently transfected with CCR5 cDNA", "result": "refractory to binding"},
      {"measurement": "binding of the Flc-M1 peptide", "setting": "CXCR4 receptor; MDA-MB-468 cells transiently transfected with empty vector", "result": "refractory to binding"},
      {"measurement": "binding of the Flc-M1 peptide", "setting": "CXCR4 receptor; MDA-MB-468 cells transiently transfected with the CXCR4 clone", "result": "significant binding"},
      {"measurement": "binding of the Flc-M1 peptide", "setting": "CXCR4 receptor; untransfected MDA-MB-468 cells", "result": "refractory to binding"}
    ]},
    {"substance": "NAACAWLEAQ [Nef Motif 1, Peptide spanning apoptotic motif 1 (aa50-60) of HIV-1 Nef]", "values": [
      {"measurement": "peripheral lymphocyte depletion", "setting": "peripheral lymphocytes; mice challenged with Nef peptide for a month, PBLs collected", "result": "induced peripheral lymphocyte depletion"},
      {"measurement": "protective humoral response against the Nef epitope", "setting": "peripheral lymphocytes; mice, naive or pre-immunized", "result": "did not stimulate a resultant protective humoral response"},
      {"measurement": "apoptosis relative to that observed using the full Nef protein", "setting": "Jurkat cell cultures; 8 ng/ml, TUNEL", "result": 82, "unit": "%"}
    ]},
    {"substance": "TNAACAWLEAQ [Nef motif 1 (Seq. ID No. 19)]", "values": [
      {"measurement": "apoptosis in the thymus", "setting": "thymus", "result": "Significant apoptosis"}
    ]},
    {"substance": "aa41-60: Nef 20 mer overlapping peptide, residues 41-60, AIDS Reagent Program (GAITSSNTAATNAACAWLEA; UniProt P04601 41-60, looked up, fragment)", "values": [
      {"measurement": "apoptosis induced by Nef 20 mer peptides", "setting": "Jurkat cell cultures", "result": "peaking"}
    ]},
    {"substance": "aa51-70: Nef 20 mer overlapping peptide, residues 51-70, AIDS Reagent Program", "values": [
      {"measurement": "apoptosis induced by Nef 20 mer peptides", "setting": "Jurkat cell cultures", "result": "peaking"}
    ]},
    {"substance": "aa161-180: Nef 20 mer overlapping peptide, residues 161-180, AIDS Reagent Program (NTSLLHPVSLHGMDDPEREV; UniProt P04601 161-180, looked up, fragment)", "values": [
      {"measurement": "apoptosis induced by Nef 20 mer peptides", "setting": "Jurkat cell cultures", "result": "second, smaller apoptotic peak"}
    ]},
    {"substance": "aa171-190: Nef 20 mer overlapping peptide, residues 171-190, AIDS Reagent Program (HGMDDPEREVLEWRFDSRLA; UniProt P04601 171-190, looked up, fragment)", "values": [
      {"measurement": "apoptosis induced by Nef 20 mer peptides", "setting": "Jurkat cell cultures", "result": "second, smaller apoptotic peak"}
    ]}
  ]
}
